Target: ACL (Homo sapiens (Human), UniProt P53396)
Assay: ADP-Glo Assay
Settings: not given

ACL, sequence (P53396 other isoform, or with tags, fused parts or gaps isoform P53396-2): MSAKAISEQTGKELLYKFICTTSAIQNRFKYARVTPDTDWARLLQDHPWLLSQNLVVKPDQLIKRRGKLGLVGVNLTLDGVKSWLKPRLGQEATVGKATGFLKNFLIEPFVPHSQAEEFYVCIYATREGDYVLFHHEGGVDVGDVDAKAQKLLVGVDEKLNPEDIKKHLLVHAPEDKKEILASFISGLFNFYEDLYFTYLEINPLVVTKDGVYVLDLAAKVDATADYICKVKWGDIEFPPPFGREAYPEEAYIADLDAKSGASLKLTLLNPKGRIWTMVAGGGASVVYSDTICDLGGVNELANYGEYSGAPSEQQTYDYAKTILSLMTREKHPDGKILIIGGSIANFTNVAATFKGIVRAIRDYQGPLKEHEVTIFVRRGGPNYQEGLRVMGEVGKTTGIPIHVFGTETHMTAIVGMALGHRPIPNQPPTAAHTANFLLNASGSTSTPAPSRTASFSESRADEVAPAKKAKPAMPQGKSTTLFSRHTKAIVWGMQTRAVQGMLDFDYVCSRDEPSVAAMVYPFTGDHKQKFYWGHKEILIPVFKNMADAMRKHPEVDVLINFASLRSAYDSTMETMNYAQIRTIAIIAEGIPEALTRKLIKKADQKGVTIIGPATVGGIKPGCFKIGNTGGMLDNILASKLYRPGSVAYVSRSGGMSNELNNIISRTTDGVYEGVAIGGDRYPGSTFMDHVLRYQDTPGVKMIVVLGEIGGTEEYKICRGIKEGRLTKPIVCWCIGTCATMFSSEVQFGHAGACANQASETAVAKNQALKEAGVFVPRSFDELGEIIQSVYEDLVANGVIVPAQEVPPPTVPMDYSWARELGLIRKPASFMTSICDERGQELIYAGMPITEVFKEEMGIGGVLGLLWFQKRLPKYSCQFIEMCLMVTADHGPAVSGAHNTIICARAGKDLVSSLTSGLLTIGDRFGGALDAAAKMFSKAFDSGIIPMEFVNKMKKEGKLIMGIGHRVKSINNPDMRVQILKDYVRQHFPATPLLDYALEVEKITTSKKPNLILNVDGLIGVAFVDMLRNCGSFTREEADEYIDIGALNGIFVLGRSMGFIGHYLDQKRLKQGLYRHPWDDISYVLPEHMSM

SMILES | IC50 [µM]
O=C(O)c1cc(Cl)c(O)c(S(=O)(=O)Nc2ccccc2F)c1 [I-283, 3-chloro-5-[(2-fluorophenyl)sulfamoyl]-4-hydroxybenzoic acid] | 0.5 to 20
O=S(=O)(Nc1ccccc1Oc1ccccc1)c1cc(Cl)cc(Cl)c1O [I-285, 3,5-dichloro-2-hydroxy-N-(2-phenoxyphenyl)benzene-1-sulfonamide] | 0.5 to 20
O=S(=O)(Nc1cc(-n2nccn2)c(F)cc1F)c1cc(Cl)cc(Cl)c1O [I-290, 3,5-dichloro-N-[2,4-difluoro-5-(2H-1,2,3-triazol-2-yl)phenyl]-2-hydroxybenzene-1-sulfonamide] | 0.5 to 20
O=C(O)COc1c(Cl)cc(Cl)cc1C(=O)Nc1cc(-c2ccccc2)ccc1C(=O)O [I-308, 3-(2-(carboxymethoxy)-3,5-dichlorobenzamido)-[1,1′-biphenyl]-4-carboxylic Acid] | 0.5 to 20
O=C(NCc1cc(-c2ccccc2)ccc1C(=O)O)c1cc(Cl)cc(Cl)c1 [I-309, 3-((3,5-dichlorobenzamido)methyl)-[1,1′-biphenyl]-4-carboxylic Acid] | 0.5 to 20
NC(=O)COc1c(Cl)cc(Cl)cc1C(=O)Nc1cc(-c2ccccc2)ccc1C(=O)O [I-320, 3-(2-(2-amino-2-oxoethoxy)-3,5-dichlorobenzamido)-[1,1′-biphenyl]-4-carboxylic Acid] | 0.5 to 20
Cc1ccc(C(=O)O)c(NS(=O)(=O)c2cc(Cl)cc(Cl)c2)c1 [I-321, 2-((3,5-dichlorophenyl)sulfonamido)-4-methylbenzoic Acid] | 0.5 to 20
O=C(O)c1ccc(C(F)(F)F)cc1NS(=O)(=O)c1cc(Cl)cc(Cl)c1 [I-324, 2-((3,5-dichlorophenyl)sulfonamido)-4-(trifluoromethyl)benzoic Acid] | 0.5 to 20
CN(c1cc(-c2ccccc2)c(F)cc1C(=O)O)S(=O)(=O)c1cc(Cl)cc(Cl)c1 [I-325, 5-((3,5-dichloro-N-methylphenyl)sulfonamido)-2-fluoro-[1,1′-biphenyl]-4-carboxylic Acid] | 0.5 to 20
O=C(O)c1c(NS(=O)(=O)c2cc(Cl)cc(Cl)c2)sc2c1CCC2 [I-341, 2-((3,5-dichlorophenyl)sulfonamido)-5,6-dihydro-4H-cyclopenta[b]thiophene-3-carboxylic acid] | 0.5 to 20
O=C(O)c1cc(Cl)ccc1NS(=O)(=O)c1cc(Cl)cc(Cl)c1 [I-343, 5-chloro-2-((3,5-dichlorophenyl)sulfonamido)benzoic Acid] | 0.5 to 20
O=C(O)c1ccsc1NS(=O)(=O)c1cc(Cl)cc(Cl)c1 [I-352, 2-((3,5-dichlorophenyl)sulfonamido)thiophene-3-carboxylic Acid] | 0.5 to 20
O=C(O)c1ccc(-c2ccccc2)cc1NS(=O)(=O)CCC1CCCC1 [I-356] | 0.5 to 20
O=C(O)c1sccc1NS(=O)(=O)c1cc(Cl)cc(Cl)c1 [I-362, 3-((3,5-dichlorophenyl)sulfonamido)thiophene-2-carboxylic Acid] | 0.5 to 20
O=C(O)c1c(NS(=O)(=O)c2cc(Cl)cc(Cl)c2)sc2c1CCCC2 [I-363, 2-((3,5-dichlorophenyl)sulfonamido)-4,5,6,7-tetrahydrobenzo[b]thiophene-3-carboxylic Acid] | 0.5 to 20
Cc1c(-c2ccccc2)ccc(C(=O)O)c1NS(=O)(=O)c1cc(Cl)cc(C(F)(F)F)c1 [I-365, 3-((3-chloro-5-(trifluoromethyl)phenyl)sulfonamido)-2-methyl-[1,1′-biphenyl]-4-carboxylic Acid] | 0.5 to 20
CN(c1cc(-c2ccccc2)ccc1F)S(=O)(=O)c1cc(Cl)cc(Br)c1O [I-370, 3-bromo-5-chloro-N-(4-fluoro-[1,1′-biphenyl]-3-yl)-2-hydroxy-N-methylbenzenesulfonamide] | 0.5 to 20
O=S(=O)(Nc1ccc(F)cc1F)c1cc(Cl)cc(-c2nn[nH]n2)c1 [I-373, 3-chloro-N-(2,4-difluorophenyl)-5-(2H-1,2,3,4-tetrazol-5-yl)benzene-1-sulfonamide] | > 20
O=C(COc1c(Cl)cc(C(=O)N2CCC2)cc1S(=O)(=O)Nc1cc(-c2ccccc2)c(F)cc1F)OCc1ccccc1 [I-375, benzyl 2-(4-(azetidine-1-carbonyl)-2-chloro-6-(N-(4,6-difluoro-[1,1′-biphenyl]-3-yl)sulfamoyl)phenoxy)acetate] | > 20

Second part, the compound after the results:

IC50 [µM] | SMILES
0.5 to 20 | O=C(Cc1cc(Cl)cc(Cl)c1)Nc1cc(-c2ccccc2)ccc1C(=O)O [I-280, 3-(2-(3,5-dichlorophenyl)acetamido)-[1,1′-biphenyl]-4-carboxylic Acid]
0.5 to 20 | O=C(O)c1ccc(-c2ccccc2)cc1NS(=O)(=O)c1ccc(Cl)c(Cl)c1 [I-284, 3-((3,4-dichlorophenyl)sulfonamido)-[1,1′-biphenyl]-4-carboxylic acid]
0.5 to 20 | O=C(O)c1ccc(-c2ccccc2)cc1NS(=O)(=O)c1cc(Cl)ccc1Cl [I-288, 3-((2,5-dichlorophenyl)sulfonamido)-[1,1′-biphenyl]-4-carboxylic acid]
0.5 to 20 | O=C(O)CCCOc1ccc(-c2ccccc2)cc1NS(=O)(=O)c1cc(Cl)cc(Cl)c1 [I-291, 4-[[3-(3,5-dichlorobenzenesulfonamido)-[1,1-biphenyl]-4-yl]oxy]butanoic Acid]
0.5 to 20 | O=C(O)c1ccc(-c2ccccc2)cc1NS(=O)(=O)c1cccc(C(F)(F)F)c1 [I-292, 3-((3-(trifluoromethyl)phenyl)sulfonamido)-[1,1′-biphenyl]-4-carboxylic acid]
0.5 to 20 | O=C(O)c1ccc(-c2ccccc2)cc1NS(=O)(=O)c1cccnc1Cl [I-300]
0.5 to 20 | O=C(O)c1ccc(-c2ccccc2)cc1NS(=O)(=O)c1ccc2[nH]ncc2c1 [I-301, 3-(1H-indazole-5-sulfonamido)-[1,1′-biphenyl]-4-carboxylic Acid]
0.5 to 20 | O=C(O)c1cc(Br)cc(S(=O)(=O)Nc2cc(-c3ccccc3)ccc2C(=O)O)c1 [I-303, 3-((3-bromo-5-carboxyphenyl)sulfonamido)-[1,1′-biphenyl]-4-carboxylic Acid]
0.5 to 20 | O=C(O)c1ccc(-c2ccccc2)cc1NS(=O)(=O)CC1CCC1 [I-307, 3-((cyclobutylmethyl)sulfonamido)-[1,1′-biphenyl]-4-carboxylic Acid]
0.5 to 20 | Cc1cccc(CS(=O)(=O)Nc2cc(-c3ccccc3)ccc2C(=O)O)c1 [I-310, 3-((m-tolylmethyl)sulfonamido)-[1,1′-biphenyl]-4-carboxylic acid]
0.5 to 20 | O=C(O)c1ccc(-c2ccccc2)cc1NS(=O)(=O)c1cccc(C(F)(F)F)n1 [I-312, 3-((6-(trifluoromethyl)pyridine)-2-sulfonamido)-[1,1′-biphenyl]-4-carboxylic Acid]
0.5 to 20 | COc1ccc(C)cc1S(=O)(=O)Nc1cc(-c2ccccc2)ccc1C(=O)O [I-313, 3-((2-methoxy-5-methylphenyl)sulfonamido)-[1,1′-biphenyl]-4-carboxylic Acid]
0.5 to 20 | CC(=O)c1cccc(S(=O)(=O)Nc2cc(-c3ccccc3)ccc2C(=O)O)c1 [I-314, 3-((3-acetylphenyl)sulfonamido)-[1,1′-biphenyl]-4-carboxylic Acid]
0.5 to 20 | COc1ccc(F)cc1S(=O)(=O)Nc1cc(-c2ccccc2)ccc1C(=O)O [I-315, 3-((5-fluoro-2-methoxyphenyl)sulfonamido)-[1,1′-biphenyl]-4-carboxylic Acid]
0.5 to 20 | O=C(O)c1ccc(-c2ccccc2)cc1NS(=O)(=O)c1cc(Br)cs1 [I-319, 3-((4-bromothiophene)-2-sulfonamido)-[1,1′-biphenyl]-4-carboxylic acid]
0.5 to 20 | COCc1cc(Cl)cc(S(=O)(=O)Nc2cc(-c3ccccc3)ccc2C(=O)O)c1 [I-337]
0.5 to 20 | O=C(O)c1ccc(-c2ccccc2)cc1NS(=O)(=O)c1cc(Cl)cc(Cl)c1F [I-342, 3-((3,5-dichloro-2-fluorophenyl)sulfonamido)-[1,1′-biphenyl]-4-carboxylic Acid]
0.5 to 20 | Cc1nn(C)c(Cl)c1S(=O)(=O)Nc1cc(-c2ccccc2)ccc1C(=O)O [I-345, 3-((5-chloro-1,3-dimethyl-1H-pyrazole)-4-sulfonamido)-[1,1′-biphenyl]-4-carboxylic Acid]
0.5 to 20 | COC(=O)c1ccc(-c2ccccc2)cc1NS(=O)(=O)c1cc(Cl)cnc1O [I-346, methyl 3-((5-chloro-2-hydroxypyridine)-3-sulfonamido)-[1,1′-biphenyl]-4-carboxylate]
0.5 to 20 | Cc1noc(C)c1S(=O)(=O)Nc1cc(-c2ccccc2)ccc1C(=O)O [I-351, 3-((3,5-dimethylisoxazole)-4-sulfonamido)-[1,1′-biphenyl]-4-carboxylic Acid]
0.5 to 20 | O=C(O)c1ccc(-c2ccccc2)cc1NS(=O)(=O)c1ccc(C(F)(F)F)cc1 [I-353, 3-((4-(trifluoromethyl)phenyl)sulfonamido)-[1,1′-biphenyl]-4-carboxylic acid]
0.5 to 20 | COc1ccc(-c2ccccc2)cc1NS(=O)(=O)c1cc(Cl)c[nH]c1=O [I-354, 5-chloro-N-[4-methoxy-[1,1-biphenyl]-3-yl]-2-oxo-1,2-dihydropyridine-3-sulfonamide]
0.5 to 20 | Cc1cc(S(=O)(=O)Nc2cc(-c3ccccc3)ccc2C(=O)O)ccc1-n1cnnn1 [I-357]
0.5 to 20 | O=C(O)c1ccc(-c2ccccc2)cc1NS(=O)(=O)c1ccc(-n2cccn2)c(F)c1 [I-358]
0.5 to 20 | O=C(O)c1ccc(-c2ccccc2)cc1NS(=O)(=O)c1cc(Br)cc2c1OCCNC2=O [I-359]
0.5 to 20 | O=C(O)c1ccc(-c2ccccc2)cc1NS(=O)(=O)CCOCCN1C(=O)c2ccccc2C1=O [I-360]
0.5 to 20 | O=C(c1c[nH]c(=O)c(S(=O)(=O)Nc2cc(-c3ccccc3)ccc2F)c1)N1CCC1 [I-369, 5-(azetidine-1-carbonyl)-N-(4-fluoro-[1,1′-biphenyl]-3-yl)-2-oxo-1,2-dihydropyridine-3-sulfonamide]
> 20 | COc1ccc(-c2ccccc2)cc1NS(=O)(=O)c1cc(C(=O)N2CCC2)cc(Cl)c1OC [I-374, 5-(azetidine-1-carbonyl)-3-chloro-2-methoxy-N-[4-methoxy-[1,1-biphenyl]-3-yl]benzene-1-sulfonamide]

Same assay, conditions: read-out: ACL-ADP-Glo (IC50); 3 nM ACL, 15 μM ATP, 3 μM CoA, 300 μM Citrate

IC50 [µM] | SMILES
0.5 to 20 | O=C(O)c1ccc(-c2ccccc2)cc1NCc1cc(Cl)cc(Cl)c1 [I-371, 3-((3,5-dichlorobenzyl)amino)-[1,1′-biphenyl]-4-carboxylic Acid]
